These results are taken from ChEMBL document CHEMBL3886569, “Substituted isoquinolines as CRTH2 receptor modulators” (2016).

The structures appear in SMILES notation.

As usually defined, the Ki is the equilibrium dissociation constant of an inhibitor or competing ligand from its target.

The assay concerns the target T1, Prostaglandin D2 receptor 2 (Homo sapiens, UniProt Q9Y5Y4).
T1 sequence (Q9Y5Y4 whole entry): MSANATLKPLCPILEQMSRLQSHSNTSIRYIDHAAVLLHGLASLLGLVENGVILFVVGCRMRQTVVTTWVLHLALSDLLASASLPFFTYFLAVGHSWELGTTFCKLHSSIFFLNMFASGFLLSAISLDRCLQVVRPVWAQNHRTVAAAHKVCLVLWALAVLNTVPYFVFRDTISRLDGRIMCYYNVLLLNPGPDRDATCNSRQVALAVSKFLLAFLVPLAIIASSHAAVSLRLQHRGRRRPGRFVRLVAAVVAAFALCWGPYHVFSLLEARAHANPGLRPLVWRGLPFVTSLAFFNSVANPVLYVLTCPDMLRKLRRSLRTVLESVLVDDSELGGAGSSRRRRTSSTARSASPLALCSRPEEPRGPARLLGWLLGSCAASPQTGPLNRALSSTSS
Briefly: Radioligand Binding Assay: Radioligand binding was performed using filtration or scintillation proximity assay (SPA) technology. SPA assays were done at room temperature in 10 mM HEPES pH 7.4, 1 mM EDTA containing 2 mM MnCl2 and 16 nM [3H]-PGD2 (PerkinElmer, Waltham, Mass.) (164 Ci mmol-1), in a final volume of 0.05 mL. Competing ligands were diluted in dimethylsulfoxide and added using very low volumes (500 nL). The reaction was initiated by the addition of a mixture of 3.52 ug of membrane protein prepared from a human embryonic kidney (HEK)-hCRTH2 cell line adhered to 140 ug of wheatgerm agglutinin SPA beads (PerkinElmer). Total and non-specific binding were determined in the absence and the presence of a CRTH2 antagonist, respectively. The reaction was routinely conducted for 60 minutes at room temperature followed by centrifugation for 5 minutes at 1000 RPM. The radioactivity was measured with a TopCountNXT (PerkinElmer). Filtration binding assays were done in a similar way with minor differences. The assay volume was 0.20 mL and competing ligands in dimethylsulfoxide were added in 2 uL. [3H]-PGD2 was used at 0.6 nM, and reactions were initiated by the addition of 10 ug of membrane protein. Reactions were terminated by filtration through GF/C filter plates (PerkinElmer) presoaked in 10 mM HEPES. After washing with buffer, plates were dried in a 50° C. oven for 1 h, scintillation cocktail was added and radioactivity was measured. Results determined using the SPA-based assay were similar to those from the filtration binding assay. (SPA uses beads or plates that emit light when radiolabelled molecules are held near them.)

For `O=C(O)CCCCc1cc2cc(-c3noc(C4Cc5ccccc5C4)n3)ccc2c(=O)n1-c1ccc(F)cc1`, the Ki is 21.5 nM.
Then `O=C(CCCCc1cc2cc(C(=O)N[C@@H]3CCCc4cc(F)ccc43)ccc2c(=O)n1-c1ccc(F)cc1)NS(=O)(=O)C1CC1`, with 10.9 nM.
Then `CC1(c2nc3ccc(F)cc3o2)CC(c2ccc3c(=O)n(-c4ccc(F)cc4)c(CCCCC(=O)O)cc3c2)=NO1` (stereo not given), with 25.4 nM; and `O=C(O)CCCCc1cc2cc(-c3noc(Cc4ccc(F)cc4)n3)ccc2c(=O)n1-c1ccc(F)cc1`, with 7.79 nM; and `CC1(c2nc3ccc(F)cc3o2)CC(c2ccc3c(=O)n(-c4ccc(F)cc4)c(CCCCC(=O)O)c(Cl)c3c2)=NO1` (stereo not given), with 79.1 nM.
